pIC50: −log10 of the molar value.
Legend:
Format in all cases: biochemical
[1] = biological target: BIKE (Homo sapiens (Human), UniProt Q9NSY1); test: KinaseProfiler radiometric assay (16-044KP); conditions: mean of at least two independent experiments
Source text: In another aspect, disclosed is a method of inhibiting citron kinase in a sample, comprising contacting the sample with a compound described herein (e.g., a compound of formula (I) or a pharmaceutically acceptable salt thereof), or a pharmaceutical composition described herein (e.g., a pharmaceutical composition comprising a compound of formula (I) or a pharmaceutically acceptable salt thereof), in an amount effective to inhibit citron kinase. In some embodiments, the step of contacting the sample with the compound comprises administering the compound to a subject (e.g., a subject) suffering from cancer. Methods of determining kinase inhibition are well known in the art. For example, kinase activity of an enzyme and the inhibitory capacity of a test compound can be determined by measuring enzyme specific phosphorylation of a substrate. Commercial assays and kits can be employed. For example, kinase inhibition can be determined using a radiometric binding assay, such as using KinaseProfiler™ technology (Eurofins Discovery). This assay method directly detects product formation without the use of modified substrates or coupling enzymes. […]
The effect of various compounds on the inhibition of other kinases has also been determined. Table 2 reports measured IC50 values; value units are nanomolar inhibition.

[2] = biological target: ACTR2(h) (Homo sapiens (Human), UniProt P27037); test: KinaseProfiler panel; design: dose or concentration left out as unconfirmed; conditions: activity remaining
[3] = biological target: BTK(h) (Homo sapiens (Human), UniProt Q06187); test: KinaseProfiler panel; design: dose or concentration left out as unconfirmed; conditions: activity remaining
[4] = biological target: Cdc7/cyclinB1(h) (Homo sapiens, UniProt O00311); test: KinaseProfiler panel; design: dose or concentration left out as unconfirmed; conditions: activity remaining
[5] = biological target: CK2α2(h) (Homo sapiens (Human), UniProt P19784); test: KinaseProfiler panel; design: dose or concentration left out as unconfirmed; conditions: activity remaining
[6] = biological target: CLK1(h) (Homo sapiens (Human), UniProt P49759); test: KinaseProfiler panel; design: dose or concentration left out as unconfirmed; conditions: activity remaining
[7] = biological target: DRAK1(h) (Homo sapiens (Human), UniProt Q9UEE5); test: KinaseProfiler panel; conditions: activity remaining
[8] = biological target: EphA1(h) (Homo sapiens (Human), UniProt P21709); test: KinaseProfiler panel; design: dose or concentration left out as unconfirmed; conditions: activity remaining
[9] = biological target: ErbB2(h) (Homo sapiens (Human), UniProt P04626); test: KinaseProfiler panel; design: dose or concentration left out as unconfirmed; conditions: activity remaining
[10] = biological target: FGFR2(h) (Homo sapiens (Human), UniProt P21802); test: KinaseProfiler panel; design: dose or concentration left out as unconfirmed; conditions: activity remaining
[11] = biological target: GRK7(h) (Homo sapiens (Human), UniProt Q8WTQ7); test: KinaseProfiler panel; design: dose or concentration left out as unconfirmed; conditions: activity remaining
[12] = biological target: LIMK1(h) (Homo sapiens (Human), UniProt P53667); test: KinaseProfiler panel; design: dose or concentration left out as unconfirmed; conditions: activity remaining
[13] = biological target: LOK(h) (Homo sapiens (Human), UniProt O94804); test: KinaseProfiler panel; design: dose or concentration left out as unconfirmed; conditions: activity remaining
[14] = biological target: MAP4K5(h) (Homo sapiens (Human), UniProt Q9Y4K4); test: KinaseProfiler panel; design: dose or concentration left out as unconfirmed; conditions: activity remaining
[15] = biological target: MEKK2(h) (Homo sapiens (Human), UniProt Q9Y2U5); test: KinaseProfiler panel; conditions: activity remaining
[16] = biological target: MSK1(h) (Homo sapiens (Human), UniProt O75582); test: KinaseProfiler panel; design: dose or concentration left out as unconfirmed; conditions: activity remaining
[17] = biological target: PASK(h) (Homo sapiens (Human), UniProt Q96RG2); test: KinaseProfiler panel; design: dose or concentration left out as unconfirmed; conditions: activity remaining
[18] = biological target: Pim-1(h) (Homo sapiens (Human), UniProt P11309); test: KinaseProfiler panel; design: dose or concentration left out as unconfirmed; conditions: activity remaining
[19] = biological target: PIP4K2a(h) (Homo sapiens (Human), UniProt P48426); test: KinaseProfiler panel; design: dose or concentration left out as unconfirmed; conditions: activity remaining
[20] = biological target: PKG1α(h) (Homo sapiens (Human), UniProt Q13976); test: KinaseProfiler panel; design: dose or concentration left out as unconfirmed; conditions: activity remaining
[21] = biological target: PRKG2(h) (Homo sapiens (Human), UniProt Q13237); test: KinaseProfiler panel; design: dose or concentration left out as unconfirmed; conditions: activity remaining
[22] = biological target: Ros(h) (Homo sapiens (Human), UniProt P08922); test: KinaseProfiler panel; design: dose or concentration left out as unconfirmed; conditions: activity remaining
[23] = biological target: SAPK4(h) (Homo sapiens (Human), UniProt O15264); test: KinaseProfiler panel; design: dose or concentration left out as unconfirmed; conditions: activity remaining
[24] = biological target: Wee1B(h) (Homo sapiens (Human), UniProt P0C1S8); test: KinaseProfiler panel; design: dose or concentration left out as unconfirmed; conditions: activity remaining

Ros(h), sequence (P08922 28-2347): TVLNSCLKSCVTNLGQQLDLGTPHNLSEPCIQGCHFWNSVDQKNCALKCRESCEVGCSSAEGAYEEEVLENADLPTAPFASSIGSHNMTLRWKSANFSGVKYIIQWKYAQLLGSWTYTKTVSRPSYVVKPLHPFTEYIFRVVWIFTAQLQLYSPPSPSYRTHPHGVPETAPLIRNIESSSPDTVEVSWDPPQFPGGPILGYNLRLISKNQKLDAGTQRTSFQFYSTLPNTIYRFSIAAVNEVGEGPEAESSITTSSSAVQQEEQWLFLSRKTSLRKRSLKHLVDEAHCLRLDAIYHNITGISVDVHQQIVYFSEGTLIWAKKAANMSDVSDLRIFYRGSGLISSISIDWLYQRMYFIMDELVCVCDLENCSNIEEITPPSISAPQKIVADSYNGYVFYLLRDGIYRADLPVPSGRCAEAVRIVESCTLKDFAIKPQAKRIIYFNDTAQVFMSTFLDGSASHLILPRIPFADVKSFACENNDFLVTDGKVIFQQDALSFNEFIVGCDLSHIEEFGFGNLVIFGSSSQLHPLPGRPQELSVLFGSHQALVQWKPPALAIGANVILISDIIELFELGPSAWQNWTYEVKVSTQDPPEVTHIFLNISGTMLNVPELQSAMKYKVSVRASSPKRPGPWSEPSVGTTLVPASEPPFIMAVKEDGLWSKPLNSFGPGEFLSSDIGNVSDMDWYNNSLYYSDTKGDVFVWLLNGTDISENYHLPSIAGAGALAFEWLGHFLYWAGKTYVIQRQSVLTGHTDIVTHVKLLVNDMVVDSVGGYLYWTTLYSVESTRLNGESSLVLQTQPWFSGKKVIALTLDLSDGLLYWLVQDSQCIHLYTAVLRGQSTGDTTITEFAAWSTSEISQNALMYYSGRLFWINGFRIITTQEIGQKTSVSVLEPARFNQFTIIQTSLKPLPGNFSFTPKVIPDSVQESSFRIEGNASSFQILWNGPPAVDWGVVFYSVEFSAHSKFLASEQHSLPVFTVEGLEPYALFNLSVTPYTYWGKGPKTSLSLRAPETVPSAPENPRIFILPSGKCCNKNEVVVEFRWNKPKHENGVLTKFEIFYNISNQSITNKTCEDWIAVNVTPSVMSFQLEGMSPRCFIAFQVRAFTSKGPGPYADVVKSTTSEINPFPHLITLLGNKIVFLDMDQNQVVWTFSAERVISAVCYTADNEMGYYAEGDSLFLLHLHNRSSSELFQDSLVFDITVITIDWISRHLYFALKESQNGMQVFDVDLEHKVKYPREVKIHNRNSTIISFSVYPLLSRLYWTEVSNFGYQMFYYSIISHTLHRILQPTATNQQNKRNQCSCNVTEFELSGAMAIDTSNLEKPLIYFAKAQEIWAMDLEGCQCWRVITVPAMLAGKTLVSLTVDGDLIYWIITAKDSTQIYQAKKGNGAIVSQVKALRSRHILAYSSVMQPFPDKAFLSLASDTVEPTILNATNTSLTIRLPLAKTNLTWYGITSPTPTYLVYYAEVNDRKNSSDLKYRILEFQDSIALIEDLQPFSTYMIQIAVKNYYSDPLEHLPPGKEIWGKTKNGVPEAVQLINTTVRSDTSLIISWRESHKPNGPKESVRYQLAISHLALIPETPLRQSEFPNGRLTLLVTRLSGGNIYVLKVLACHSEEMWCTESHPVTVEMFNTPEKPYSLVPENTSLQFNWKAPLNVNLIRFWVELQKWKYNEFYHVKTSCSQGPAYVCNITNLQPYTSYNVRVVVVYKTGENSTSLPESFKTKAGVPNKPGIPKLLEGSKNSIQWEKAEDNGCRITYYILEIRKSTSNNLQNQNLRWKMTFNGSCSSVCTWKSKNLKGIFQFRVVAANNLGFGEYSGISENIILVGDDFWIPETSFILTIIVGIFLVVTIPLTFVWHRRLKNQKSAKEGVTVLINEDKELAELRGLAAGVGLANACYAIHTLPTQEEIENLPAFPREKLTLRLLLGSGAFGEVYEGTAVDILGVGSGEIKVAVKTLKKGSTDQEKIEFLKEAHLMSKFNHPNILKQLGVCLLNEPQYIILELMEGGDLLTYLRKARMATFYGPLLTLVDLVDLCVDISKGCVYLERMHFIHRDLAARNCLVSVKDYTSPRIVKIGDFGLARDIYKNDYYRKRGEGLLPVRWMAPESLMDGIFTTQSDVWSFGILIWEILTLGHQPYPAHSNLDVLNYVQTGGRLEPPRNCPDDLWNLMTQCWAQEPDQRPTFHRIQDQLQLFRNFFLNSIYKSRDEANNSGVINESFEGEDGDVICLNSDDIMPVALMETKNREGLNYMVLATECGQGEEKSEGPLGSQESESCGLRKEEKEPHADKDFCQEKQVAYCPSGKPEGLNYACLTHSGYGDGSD
FGFR2(h), sequence (P21802 22-821): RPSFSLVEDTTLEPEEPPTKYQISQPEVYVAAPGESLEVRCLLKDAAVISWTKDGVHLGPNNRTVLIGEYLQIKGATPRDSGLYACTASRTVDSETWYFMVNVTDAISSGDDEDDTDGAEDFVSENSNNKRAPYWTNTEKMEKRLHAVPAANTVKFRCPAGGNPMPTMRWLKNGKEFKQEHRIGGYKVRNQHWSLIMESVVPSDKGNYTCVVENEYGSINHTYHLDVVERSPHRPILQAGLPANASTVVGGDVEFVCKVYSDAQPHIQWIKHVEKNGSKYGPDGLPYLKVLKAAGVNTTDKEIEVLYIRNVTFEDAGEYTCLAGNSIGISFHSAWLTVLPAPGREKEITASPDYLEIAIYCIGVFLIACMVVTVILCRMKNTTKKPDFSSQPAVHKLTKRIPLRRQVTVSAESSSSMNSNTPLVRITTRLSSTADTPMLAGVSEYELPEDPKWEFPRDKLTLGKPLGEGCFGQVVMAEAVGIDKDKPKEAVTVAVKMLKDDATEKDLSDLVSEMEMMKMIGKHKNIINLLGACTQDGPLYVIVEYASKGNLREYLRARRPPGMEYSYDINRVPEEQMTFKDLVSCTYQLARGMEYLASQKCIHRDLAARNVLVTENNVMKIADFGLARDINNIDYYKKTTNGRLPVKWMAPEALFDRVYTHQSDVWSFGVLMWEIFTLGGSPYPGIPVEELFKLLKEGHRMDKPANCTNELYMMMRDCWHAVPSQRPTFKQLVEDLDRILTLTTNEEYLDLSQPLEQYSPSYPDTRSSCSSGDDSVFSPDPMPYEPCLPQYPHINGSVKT
CK2α2(h), sequence (P19784 whole entry): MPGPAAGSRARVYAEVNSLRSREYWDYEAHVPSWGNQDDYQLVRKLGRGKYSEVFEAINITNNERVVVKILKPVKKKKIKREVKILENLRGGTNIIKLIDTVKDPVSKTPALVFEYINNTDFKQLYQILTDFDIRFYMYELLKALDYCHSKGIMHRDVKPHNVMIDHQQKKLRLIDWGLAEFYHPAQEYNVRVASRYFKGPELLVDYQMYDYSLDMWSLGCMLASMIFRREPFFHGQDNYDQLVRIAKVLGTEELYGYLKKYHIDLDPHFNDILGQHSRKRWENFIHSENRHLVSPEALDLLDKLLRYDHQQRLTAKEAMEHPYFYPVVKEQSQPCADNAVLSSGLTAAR
DRAK1(h), sequence (Q9UEE5 whole entry): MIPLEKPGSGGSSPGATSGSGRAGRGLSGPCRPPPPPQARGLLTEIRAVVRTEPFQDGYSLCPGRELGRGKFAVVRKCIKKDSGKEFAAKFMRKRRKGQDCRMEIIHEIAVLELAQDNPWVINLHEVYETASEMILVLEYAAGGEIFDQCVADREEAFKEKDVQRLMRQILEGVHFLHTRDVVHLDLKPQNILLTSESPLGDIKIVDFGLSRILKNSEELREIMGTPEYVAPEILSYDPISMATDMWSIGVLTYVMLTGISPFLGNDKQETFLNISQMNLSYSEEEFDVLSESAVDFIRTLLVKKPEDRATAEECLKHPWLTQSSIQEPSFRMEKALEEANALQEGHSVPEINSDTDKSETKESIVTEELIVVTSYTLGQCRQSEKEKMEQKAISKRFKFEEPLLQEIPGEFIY
LIMK1(h), sequence (P53667 whole entry): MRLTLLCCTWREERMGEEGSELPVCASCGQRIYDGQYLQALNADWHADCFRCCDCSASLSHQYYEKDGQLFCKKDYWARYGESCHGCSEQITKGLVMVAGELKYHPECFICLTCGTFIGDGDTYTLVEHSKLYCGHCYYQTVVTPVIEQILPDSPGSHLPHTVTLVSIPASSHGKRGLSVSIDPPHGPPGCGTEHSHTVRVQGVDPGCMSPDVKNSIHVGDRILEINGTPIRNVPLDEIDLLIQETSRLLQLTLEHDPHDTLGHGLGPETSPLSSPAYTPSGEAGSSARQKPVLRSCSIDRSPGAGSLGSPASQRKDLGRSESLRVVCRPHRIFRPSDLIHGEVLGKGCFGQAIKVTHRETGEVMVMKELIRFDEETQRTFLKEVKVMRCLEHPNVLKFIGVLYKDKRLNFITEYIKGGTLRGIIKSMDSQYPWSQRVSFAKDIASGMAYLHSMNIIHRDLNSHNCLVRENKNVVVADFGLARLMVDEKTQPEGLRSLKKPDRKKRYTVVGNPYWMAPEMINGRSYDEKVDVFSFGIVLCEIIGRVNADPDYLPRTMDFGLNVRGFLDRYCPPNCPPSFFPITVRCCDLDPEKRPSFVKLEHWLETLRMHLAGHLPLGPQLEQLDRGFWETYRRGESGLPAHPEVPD
ACTR2(h), sequence (P27037 20-513): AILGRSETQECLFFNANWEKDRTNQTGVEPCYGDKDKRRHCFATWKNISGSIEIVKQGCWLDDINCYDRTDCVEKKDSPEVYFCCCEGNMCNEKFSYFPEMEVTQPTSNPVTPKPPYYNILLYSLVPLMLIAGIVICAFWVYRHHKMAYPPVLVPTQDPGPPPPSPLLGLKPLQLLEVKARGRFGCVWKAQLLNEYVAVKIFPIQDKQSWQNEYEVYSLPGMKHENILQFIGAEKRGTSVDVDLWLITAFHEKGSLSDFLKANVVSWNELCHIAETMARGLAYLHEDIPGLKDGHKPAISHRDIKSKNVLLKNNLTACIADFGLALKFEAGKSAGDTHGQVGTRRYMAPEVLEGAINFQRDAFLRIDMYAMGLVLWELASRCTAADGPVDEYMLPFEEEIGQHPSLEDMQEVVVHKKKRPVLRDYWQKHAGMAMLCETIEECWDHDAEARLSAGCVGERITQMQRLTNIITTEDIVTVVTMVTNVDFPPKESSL

Cc1cc2c(-c3ccc(NC(=O)[C@H](N)CC(C)(C)C)cc3C)ccnc2[nH]1 [Compound F-90, (2R)-2-Amino-4,4-dimethyl-N-[3-methyl-4-(2-methyl-1H-pyrrolo[2,3-b]pyridin-4-yl)phenyl]pentanamide]
pIC50 [1]: 6.04 | % Activity [2]: 96% | % Activity [3]: 122% | % Activity [4]: 75% | % Activity [5]: 115% | % Activity [6]: 88% | % Activity [7]: 80% | % Activity [8]: 92% | % Activity [9]: 97% | % Activity [10]: 89% | % Activity [11]: 98% | % Activity [12]: 70% | % Activity [13]: 96% | % Activity [14]: 92% | % Activity [15]: 122% | % Activity [16]: 111% | % Activity [17]: 72% | % Activity [18]: 95% | % Activity [19]: 100% | % Activity [20]: 118% | % Activity [21]: 110% | % Activity [22]: 97% | % Activity [23]: 94% | % Activity [24]: 88%

From patent US20250243196A1, “CITRON KINASE INHIBITORS” (The Cleveland Clinic Foundation, priority 2021, published 2025)
